Results published in patent publication US5030635A, “6-7-dimethoxy-1,2-dihydro-2-arylquinazoline-3-oxides” (Ortho Pharmaceutical Corporation, priority 1990, dated 1991).

What was measured:
[1] = test system: ovalbumin-induced bronchoconstriction; experiment: Active Lung Anaphylaxis (inhibition of ovalbumin-induced bronchoconstriction); format: in vivo, male Harley guinea pigs; settings: prior to ovalbumin provocation, actively sensitized guinea pigs, percent inhibition of control
Method: Pharmacological Activity--Active Lung Anaphylaxis
Using the procedures described by Ritchie, D. M. et al., Agents and Actions 11, 4 (1981), male Harley guinea pigs were actively sensitized, intraperitoneally, with 16 mg alum and 1 mg ovalbumin. Fourteen days later, these animals were anesthetized and their respiration arrested by the administration of succinylcholine. Respiration was maintained at a constant pressure by a miniature Starling pump. Lung overflow changes in pressure were recorded.
Animals were pretreated with indomethacin (10 mg/kg, i.v.), atropine (0.5 mg/kg, i.v.), methysergide (0.1 mg/kg, i.v.), methapyrilene (2.0 mg/kg, i.v.) and arachidonic acid (5.0 mg/kg, i.v.) prior to ovalbumin challenge. […] Indications of drug efficacy were manifested as a substantial reduction in the degree of bronchoconstriction evidenced by control animals.
Bronchoconstriction induced by ovalbumin was measured as a percent of maximum bronchoconstriction (BC) obtained by clamping off the trachea. Percent inhibition of control was determined as follows: [formula]

[2] = test system: myocardial contractile force; experiment: Acute In Vivo Cardiotonic Evaluation (myocardial contractile force); parameters: species or system adult mongrel dogs; settings: Canis lupus familiaris, iv, i.v. infusion, anesthetized dogs, vs pretreatment control values, read-out: % Increase In Myocardial Contractile force; for change in vivo at 8.75 mg/kg: 8.75 mpk; for change in vivo at 1.87 mg/kg: 1.87 mpk
Method: Pharmacological Activity--Acute In Vivo Cardiotonic Evaluation
Using the procedures described by Alousi, A. A. et al., Circ. Res. 45, 666 (1979), adult mongrel dogs were anesthetized with sodium pentobarbital, and artificially respirated. Arterial pressure was recorded via a femoral artery and the pressure pulse was used to trigger a cardiotachometer for heart rate. Left ventricular pressure was measured with a Millar catheter, and dP/dt was derived. Cardiac output was determined by measuring ascending aortic blood flow with an electromagnetic flow probe, and the myocardial contractile force (CF) was measured with a Walton Brodie strain gauge sutured to the right ventricle. Lead II EKG was also recorded.
A standard dose of dopamine or dobutamine was administered in order to assess myocardial responsiveness. The test compounds were then administered by i.v. infusion and the effects on cardiovascular parameters were determined. The dose of each example compound was either 1.87 mg/kg or 8.75 mg/kg as set forth below in Table 1.
The dose related effects of the compound on myocardial contractile force was compared to pretreatment control values, expressed as a % change and rated for activity. Statistical evaluations were made using the appropriate parametric test against a vehicle control.

| SMILES | % Inhibition of Bronchoconstriction at 50 mpk [1] [%] | change in vivo at 8.75 mg/kg [2] [%] | change in vivo at 1.87 mg/kg [2] [%] |
| --- | --- | --- | --- |
| COc1cc2c(cc1OC)C(C)=[N+]([O-])C(c1ccccc1)N2 (stereo not drawn) [Example 1, 1,2-Dihydro-2-phenyl-4-methyl-6,7-dimethoxy-quinazoline-3-oxide] | 60.9 | 157 | – |
| COc1cc2c(cc1OC)C(C)=[N+]([O-])C(c1ccc(Cl)cc1)N2 (stereo not drawn) [Example 2, 1,2-Dihydro-2-(4-chlorophenyl)-4-methyl-6,7-dimethoxyquinazoline-3-oxide] | – | 50 | – |
| COc1ccc(C2Nc3cc(OC)c(OC)cc3C(C)=[N+]2[O-])cc1 (stereo not drawn) [Example 3, 1,2-Dyhydro-2-(4-methoxyphenyl)-4-methyl-6,7-dimethoxyquinazoline-3-oxide] | – | – | 29 |
| COc1cc2c(cc1OC)C(C)=[N+]([O-])C(c1ccc(C)cc1)N2 (stereo not drawn) [Example 4, 1,2-Dihydro-2-(4-tolyl)-4-methyl-6,7-dimethoxy-quinazoline-3-oxide] | 71.9 | – | 42 |
| COc1cc2c(cc1OC)C(C)=[N+]([O-])C(c1ccc3c(c1)OCO3)N2 (stereo not drawn) [Example 5, 1,2-Dihydro-2-(3,4-methylenedioxyphenyl)-4-methyl-6,7-dimethoxyquinazoline-3-oxide] | – | 124 | – |
| COc1cc2c(cc1OC)C(C)=[N+]([O-])C(c1cccc3c1OCO3)N2 (stereo not drawn) [Example 6, 1,2-Dihydro-2-(2,3-methylenedioxyphenyl)-4-methyl-6,7-dimethoxyquinazoline-3-oxide] | – | 45 | – |
| COc1cc2c(cc1OC)C(C)=[N+]([O-])C(c1cccc(OCc3ccccc3)c1)N2 (stereo not drawn) [Example 7, 1,2-Dihydro-2-(3-benzyloxyphenyl)-4-methyl-6,7-dimethoxyquinazoline-3-oxide] | 49.5 | 20 | – |
| COc1cc2c(cc1OC)C(C)=[N+]([O-])C(c1c(F)c(F)c(F)c(F)c1F)N2 (stereo not drawn) [Example 8, 1,2-Dihydro-2-pentafluorophenyl-4-methyl-6,7-dimethoxyquinazoline-3-oxide] | 27.3 | – | 33 |
| COc1cc2c(cc1OC)C(C)=[N+]([O-])C(c1ccco1)N2 (stereo not drawn) [Example 9, 1,2-Dihydro-2-(2-furyl)-4-methyl-6,7-dimethoxyquinazoline-3-oxide] | – | 123 | – |
| COc1cc2c(cc1OC)C(C)=[N+]([O-])C(c1cccs1)N2 (stereo not drawn) [Example 10, 1,2-Dihydro-2-(2-thienyl)-4-methyl-6,7-dimethoxyquinazoline-3-oxide] | – | 75 | – |
| COc1cc2c(cc1OC)C(C)=[N+]([O-])C(c1cccn1C)N2 (stereo not drawn) [Example 11, 1,2-Dihydro-2-(2-(N-methyl)pyrrolo)-4-methyl-6,7-dimethoxyquinazoline-3-oxide] | – | – | 29 |
| COc1cc2c(cc1OC)C(C)=[N+]([O-])C(c1ccccn1)N2 (stereo not drawn) [Example 12, 1,2-Dihydro-2-(2-pyridyl)-4-methyl-6,7-dimethoxyquinazoline-3-oxide] | 37.9 | 45 | – |
| COc1cc2c(cc1OC)C(C)=[N+]([O-])C(c1ccncc1)N2 (stereo not drawn) [Example 13, 1,2-Dihydro-2-(4-pyridyl)-4-methyl-6,7-dimethoxyquinazoline-3-oxide] | – | 29 | – |
